According to patent US12453731B2, “Aniline-based WDR5 protein-protein interaction inhibitor, and preparation method and use thereof” (CHINA PHARMACEUTICAL UNIVERSITY, priority 2019, dated 2025):
Values belong to the compound of their own block, whether it stands above or below them.

Tests used:
[1] = tested on: MV4-11 human acute mononuclear leukemia cells; test: anti-proliferative activity against leukemia cells MV4-11; assay type: cell-based; settings: Homo sapiens, MV4-11, MV4-11 cells; read-out: GI50 (MV-411)
Excerpt: (§1) Some compounds of the present disclosure have also been tested for the antiproliferative activity against leukemia cells.

[2] = tested on: Molm-13 human acute myeloid leukemia cells; test: anti-proliferative activity against leukemia cells Molm-13; assay type: cell-based; settings: Homo sapiens, MOLM-13, Molm-13 cells
Excerpt: as §1

MLL1-WDR5 PPI = MLL1-WDR5 PPI (Homo sapiens (Human), UniProt P61964); test: fluorescent probe assay of MLL1-WDR5 protein-protein interaction inhibition; assay type: binding; settings: fluorescent probe based on MLL1 peptide, incubation 0.5 hrs, read-out: MLL1-WDR5 PPI inhibiting activity IC50
Description: In the present disclosure, a fluorescent molecular probe was constructed based on a MLL1 peptide fragment binding to WDR5, for use as a method for study on an aniline compound interfering with WDR5 protein-protein interaction, to determine an inhibition rate of the aniline compound at various concentrations, and then compute the IC50 value. Specific experimental steps: 20 μL of WDR5 protein, 20 μL of a fluorescent probe, and 20 μL of a compound of different concentration gradients were added to a 384-well plate respectively. After incubation for 0.5 hrs, the fluorescence was read on a multifunctional microplate reader at an excitation wavelength of 485 nm and an emission wavelength of 535 nm, to compute the mP value. The inhibition rate was computed as per the formula below, and then the IC50 value was computed using GraphPad software.

[3] = tested on: methylation level of H3K4; test: inhibition of the methylation level of H3K4 (methyltransferase activity); assay type: biochemical
[4] = tested on: MLL1 (H3K4me1/2/3 expression level); test: Western blot, methyltransferase function of MLL1 at the cellular level; assay type: cell-based; settings: FIG. 1
Excerpt: Moreover, some compounds have also been tested by Western-blot.

Hox and Meis-1 genes = test: RT-PCR, expression of downstream Hox and Meis-1 genes at the cellular level; assay type: cell-based; settings: FIG. 2
Excerpt: Furthermore, some of the compounds of the present disclosure have also been subjected to a RT-PCR experiment at the cellular level. The results of the inhibitory effect of some compounds on the expression levels of downstream Hox and Meis-1 genes at the cellular level are shown in FIG. 2.

MV4-11 tumor = test: MV4-11 nude mouse xenograft tumor model; assay type: in vivo; settings: MV4-11 xenograft in nude mice, oral administration, FIG. 3
Excerpt: In addition, some of the compounds of the present disclosure have also been tested for the anti-tumor activity at the animal level. A nude mice xenograft tumor model of leukemia cells MV4-11 was selected for oral administration.

SMILES: CC(C)C(N)C(=O)Nc1ccc(-c2ccc(N3CCN(C)CC3)c(Nc3ncnc(Cl)c3N)c2F)cc1 (centres unmarked) [Example 62, 2-amino-N-(3″-((5-amino-6-chloropyrimidin-4-yl)amino)-2′-fluoro-4″-(4-methylpiperazin-1-yl)-[1,1′biphenylyl]-4-yl)-3-methylbutyramide]
GI50 [1]: 17.4 µM
GI50 [2]: 22 µM
IC50 (MLL1-WDR5 PPI): 0.034 µM
Whether the methylation level of H3K4 was inhibited [3]: Yes

SMILES: CN1CCN(c2cc(F)c(-c3ccc(C(=O)N(C)C)cc3)cc2Nc2ncnc(Cl)c2N)CC1 [Example 72, 5″-((5-amino-6-chloropyrimidin-4-yl)amino)-2′-fluoro-N,N-dimethyl-4″-(4-methylpiperazin-1-yl)-[1,1′-biphenyl]-4-carboxamide]
inhibition of catalytic activity of MLL1, expression level of H3K4me1/2/3 [4]: inhibit the catalytic activity of MLL1 dose-dependently
GI50 [1]: 12.6 µM
expression levels of Hox and Meis-1 genes (Hox and Meis-1 genes): down-regulate the expression levels of Hox and Meis-1 genes dose-dependently
inhibition of tumor growth (MV4-11 tumor): inhibit the tumor growth dose-dependently
GI50 [2]: 13.1 µM
IC50 (MLL1-WDR5 PPI): 0.029 µM
Whether the methylation level of H3K4 was inhibited [3]: Yes

SMILES: CN1CCN(c2ccc(-c3ccc(C(=O)NCCN4CCOCC4)cc3)cc2Nc2ncnc(Cl)c2N)CC1 [Example 24, 3″-((5-amino-6-chloropyrimidin-4-yl)amino)-4″-(4-methylpiperazin-1-yl)-N-(2-morpholinoethyl)-[1,1′-biphenyl]-zole-4-carboxamide]
GI50 [1]: 11 µM
GI50 [2]: 17.6 µM
IC50 (MLL1-WDR5 PPI): 0.183 µM
Whether the methylation level of H3K4 was inhibited [3]: Yes

SMILES: CN1CCN(c2ccc(-c3ccc(NC(=O)CC4CCOCC4)cc3)c(F)c2Nc2ncnc(Cl)c2N)CC1 [Example 61]
GI50 [1]: 21.1 µM
GI50 [2]: 20.5 µM
IC50 (MLL1-WDR5 PPI): 0.085 µM
Whether the methylation level of H3K4 was inhibited [3]: Yes

SMILES: CN1CCN(C(=O)c2ccc(-c3ccc(N4CCN(C)CC4)c(Nc4ncnc(Cl)c4N)c3)c(F)c2)CC1 [Example 38, (3″-((5-amino-6-chloropyrimidin-4-yl)amino)-2-fluoro-4″-(4-methylpiperazin-1-yl)-[1,1′-biphenyl]-4-yl)(4-methylpiperazin-1-yl)methanone]
GI50 [1]: 20.8 µM
GI50 [2]: 26 µM
IC50 (MLL1-WDR5 PPI): 0.652 µM
Whether the methylation level of H3K4 was inhibited [3]: Yes

SMILES: CN1CCN(c2ccc(-c3ccc(C(=O)N4CCOCC4)cc3)cc2Nc2ncnc(Cl)c2N)CC1 [Example 23, (3″-((5-amino-6-chloropyrimidin-4-yl)amino)-4-(4-methylpiperazin-1-yl)-[1,1′-biphenyl]-4-yl)(morpholino)methanone]
GI50 [1]: 16.7 µM
GI50 [2]: 23.4 µM
IC50 (MLL1-WDR5 PPI): 0.186 µM
Whether the methylation level of H3K4 was inhibited [3]: Yes

SMILES: CN1CCN(c2ccc(-c3ccc(C(=O)NCCCN4CCOCC4)cc3)c(F)c2Nc2ncnc(Cl)c2N)CC1 [Example 57]
GI50 [1]: 22.3 µM
GI50 [2]: 17.6 µM
IC50 (MLL1-WDR5 PPI): 0.069 µM
Whether the methylation level of H3K4 was inhibited [3]: Yes

SMILES: CN1CCN(c2ccc(-c3ccc(NC(=O)C4CCCCC4)cc3)cc2Nc2ncnc(Cl)c2N)CC1 [Example 35, N-(3″-((5-amino-6-chloropyrimidin-4-yl)amino)-4″-(4-methylpiperazin-1-yl)-[1,1′-biphenyl]-4-yl)cyclohexanecarboxamide]
GI50 [1]: 2.07 µM
GI50 [2]: 6.16 µM
IC50 (MLL1-WDR5 PPI): 0.372 µM
Whether the methylation level of H3K4 was inhibited [3]: Yes

The remaining compounds from weak to strong by GI50 [1], led by results:

GI50 [1]: 27.3 µM
GI50 [2]: 32.6 µM
IC50 (MLL1-WDR5 PPI): 0.31 µM
Whether the methylation level of H3K4 was inhibited [3]: Yes
SMILES: CN1CCN(c2ccc(-c3ccc(C(=O)NCCCO)cc3)cc2Nc2ncnc(Cl)c2N)CC1 [Example 30, 3″-((5-amino-6-chloropyrimidin-4-yl)amino)-N-(3-hydroxylpropyl)-4″-(4-methylpiperazin-1-yl)-[1,1′-biphenyl]-zole-4-carboxamide]

GI50 [1]: 25.8 µM
GI50 [2]: 24.4 µM
IC50 (MLL1-WDR5 PPI): 0.329 µM
Whether the methylation level of H3K4 was inhibited [3]: Yes
SMILES: CN1CCC(C(=O)Nc2cccc(-c3ccc(N4CCN(C)CC4)c(Nc4ncnc(Cl)c4N)c3)c2)CC1 [Example 41, N-(3″-((5-amino-6-chloropyrimidin-4-yl)amino)-4″-(4-methylpiperazin-1-yl)-[1,1′-biphenyl]-3-yl)-1-methylpiperidin-4-carboxamide]

GI50 [1]: 24.9 µM
GI50 [2]: 20.8 µM
IC50 (MLL1-WDR5 PPI): 0.165 µM
Whether the methylation level of H3K4 was inhibited [3]: Yes
SMILES: CN1CCN(c2ccc(-c3ccc(C(=O)NCCCN4CCOCC4)cc3)cc2Nc2ncnc(Cl)c2N)CC1 [Example 25, 3″-((5-amino-6-chloropyrimidin-4-yl)amino)-4″-(4-methylpiperazin-1-yl)-N-(3-morpholinopropyl)-[1,1′-biphenyl]-zole-4-carboxamide]

GI50 [1]: 20.4 µM
GI50 [2]: 28.6 µM
IC50 (MLL1-WDR5 PPI): 0.033 µM
Whether the methylation level of H3K4 was inhibited [3]: Yes
SMILES: CN1CCN(c2ccc(-c3ccc(NC(=O)CN)cc3)c(F)c2Nc2ncnc(Cl)c2N)CC1 [Example 64, 2-amino-N-(3″-((5-amino-6-chloropyrimidin-4-yl)amino)-2′-fluoro-4″-(4-methylpiperazin-1-yl)-[1,1′biphenylyl]-4-yl)acetamide]

GI50 [1]: 20.2 µM
GI50 [2]: 13.2 µM
IC50 (MLL1-WDR5 PPI): 0.033 µM
Whether the methylation level of H3K4 was inhibited [3]: Yes
SMILES: CN1CCN(c2cc(F)c(-c3ccc(C(=O)N4CCC(O)CC4)cc3)cc2Nc2ncnc(Cl)c2N)CC1 [Example 70]

GI50 [1]: 9.32 µM
GI50 [2]: 12.5 µM
IC50 (MLL1-WDR5 PPI): 0.261 µM
Whether the methylation level of H3K4 was inhibited [3]: Yes
SMILES: CCCC(=O)Nc1ccc(-c2ccc(N3CCN(C)CC3)c(Nc3ncnc(Cl)c3N)c2)cc1 [Example 36, N-(3″-((5-amino-6-chloropyrimidin-4-yl)amino)-4″-(4-methylpiperazin-1-yl)-[1,1′-biphenyl]-4-yl)butyramide]
